# Data as given in patent US9522928B2, “Mannosylated compounds useful for the prevention and the treatment of infectious diseases” (UNIVERSITE DE STRASBOURG, priority 2011, dated 2016).
# Entries after “also recorded” stand apart in the source; their conditions may differ.
# Experiments:
# [1] = Hydrodynamic diameter of micelles (Zetasizer Nano ZS); assay type: physicochemical; conditions: in water at 0.5 mg/ml
# Procedure: DiManinsatC24 was prepared according a procedure similar to that used for the preparation of TriDiManC24 except that: • pentacosanoic acid was replaced by 10,12-pentacosadiynoic acid, and • before the coupling with 10,12-pentacosadiynoic acid, the benzyl groups of compound 33 were replaced by acetyl group so as to provide compound 108 (as illustrated in FIG. 3E). ^1H NMR δ(ppm) (MeOD, 400 MHz) 4.87 (s, 3H), 4.73 (s, 3H), 3.64-3.50 (m, 14H), 3.46-3.20 (m, 76H), 2.97-2.93 (m, 6H), 2.33 (t, 6H, J=6.8 Hz), 2.09-1.96 (m, 6H), 1.08-1.05 (m, 32H), 0.66 (t, 3H, J=6.8 Hz). ^13C NMR δ (ppm) (MeOD, 100 MHz) 173.7, 168.8, 104.2, 101.2, 80.6, 80.4, 75.1, 74.7, 72.5, 72.2, 72.1, 71.9, 71.8, 71.7, 71.6, 71.4, 69.4, 69.1, 68.9, 68.7, 68.6, 68.0, 63.2, 63.1, 42.2, 37.0, 34.8, 33.7, 33.1, 30.8, 30.7, 30.6, 30.5, 30.4, 30.2, 29.5, 28.1, 27.0, 26.0, 23.7, 19.7, 14.4. IR (neat film, cm^−1): 3353, 2924, 1716, 1636, 1350, 1182, 1095, 1035, 1009, 837, 669. • Determination of critical micelle concentrations (CMCs) and size of particles. The hydrodynamic diameters of micelles of glycolipids were measured in water using a Zetasizer Nano ZS system (Malvern Instruments). The CMCs were measured using pyrene as an extrinsic fluorescent probe and were carried out as described (Perino et al., 2011). Briefly, a range of glycolipid samples were dissolved in water (1 ml), with concentrations ranging from 1.0 to 0.001 mg/ml. A stock solution of pyrene (1 mM) was prepared in dimethyl sulfoxyde and was added to each sample. Fluorescent emission of pyrene was measured at 25° C. using a Fluorolog spectrofluorometer (Jobin Yvon, Horiba). The intensities of fluorescence emission were determined at 374 nm (I374) and at 383 nm (I383), with an excitation at a 339 nm wavelength. The ratios I374/I383 were calculated and plotted against the glycolipid concentration. The CMC value was determined at the intersection of the two straight lines.
# DC-SIGN CRD = molecular target: T1, DC-SIGN CRD (Homo sapiens, UniProt Q9NNX6); test: Surface plasmon resonance (SPR) binding to immobilised DC-SIGN CRD; conditions: Kd=koff/kon
# T1 construct: human DC-SIGN (Lys62-Ala404, from R§D Systems); purchased R&D Systems ('R§D Systems' [sic])
# T1 sequence (Q9NNX6 62-404): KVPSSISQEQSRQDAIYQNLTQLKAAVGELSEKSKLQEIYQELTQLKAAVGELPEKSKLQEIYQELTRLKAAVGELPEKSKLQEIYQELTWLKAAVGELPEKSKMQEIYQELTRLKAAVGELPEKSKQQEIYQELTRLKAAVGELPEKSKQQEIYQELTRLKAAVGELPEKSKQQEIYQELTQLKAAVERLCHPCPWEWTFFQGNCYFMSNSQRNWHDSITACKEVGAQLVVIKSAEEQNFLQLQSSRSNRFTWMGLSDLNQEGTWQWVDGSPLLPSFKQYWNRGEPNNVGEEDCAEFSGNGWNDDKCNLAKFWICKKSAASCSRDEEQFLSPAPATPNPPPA
# Procedure: SPR experiments were performed using a Biacore 3000. […] Biosensor assays were performed with HEPES-buffered saline (10 mM HEPES, 150 mM sodium chloride, pH 7.4) containing 0.005% surfactant P20 and 5 mM CaCl2 as a running buffer. All binding experiments were carried out at 25° C. with a constant flow rate of 20 μl/min. The different compounds dissolved in the running buffer (0.39 to 50 μM) were injected for 3 min, followed by a dissociation phase of 3 min. The sensor chip surface was regenerated after each experiment by injecting 10 μL of EDTA 0.5 M pH 8.0. A simple channel activated by EDC/NHS and deactivated with ethanolamine was used as control. The kinetic parameters were calculated using the BlAeval 4.1 software. Analysis was performed using the simple Langmuir binding model with separate ka/kd (kon/koff). The specific binding profiles were obtained after subtracting the response signal from the control channel and from blank-buffer injection. The fitting to each model was judged by the chi square value and randomness of residue distribution compared to the theoretical model (Langmuir binding 1:1).
# The binding affinity of mannoside derivatives for the carbohydrate recognition domain (CRD) of DC-SIGN was assessed by surface plasmon resonance (SPR).
# A CM5 sensor chip was functionalized with the DC-SIGN CRD, and increasing concentrations of the various compounds, mannan as a positive control and octaethyleneglycol (OEG) as a negative control, were injected over the chip surface. The association (kon) and dissociation (koff) rate constants and the resulting dissociation equilibrium constant (Kd=koff/kon) for each assessed compound were determined (see Table 1 hereunder).
smiles,measurement,setting,value
CCCCCCCCCCCCCCCCCCCCCCCCC(=O)NC(COCCC(=O)NCCOCCOCCOCCOC1OC(CO)C(O)C(O)C1O)(COCCC(=O)NCCOCCOCCOCCOC1OC(CO)C(O)C(O)C1O)COCCC(=O)NCCOCCOCCOCCOC1OC(CO)C(O)C(O)C1O (stereo not drawn) [TriManC24],hydrodynamic diameter of micelles,[1],39 nm
same,KD (μM),DC-SIGN CRD,low micromolar range; also recorded: Sub-micromolar
same,Kd,DC-SIGN CRD,3.19 µM
